Values quoted from earlier work in patent US8367620B2, “Peptidic growth hormone secretagogues analog compounds and preparations thereof” (Centro de Ingenieria Genetica y Biotecnologia, priority 2006, dated 2013).
Where no end group is shown, it is not given here. [ ]: non-standard residue; d: D form. d2Nal = N[C@H](Cc1ccc2ccccc2c1)C(=O)O

Test system: GH release
Settings: McDowell 1995; compared to GHRP-6; cited from earlier work

Substance: [dK][d2Nal]AW[dF]EK-NH2
- fold increased activity in vitro: 10 fold
